# Test results reported in ChEMBL document CHEMBL1157124, “Synthesis and anticancer evaluation of alpha-lipoic acid derivatives” (Bioorg Med Chem Lett, 2010).
# Calls of active or inactive are those of the source. The rule behind the calls is not given here.
# Experiments:
# [1] = test system: DU-145; assay: Cytotoxicity against human DU145 cells; assay type: functional, cell-based
# [2] = test system: NCI-H460; assay: Cytotoxicity against human NCI-H460 cells assessed as growth inhibition at 0.1 ug/ml after 24 hrs by MTT assay; assay type: functional; conditions: NCI-H460, 24 h, read-out: GI
# [3] = Cytotoxicity against human HO8910 cells assessed as growth inhibition at 100 ug/ml after 24 hrs by MTT assay; assay type: functional; conditions: HO-8910, 24 h, read-out: GI
# [4] = Cytotoxicity against human HO8910 cells assessed as growth inhibition at 10 ug/ml after 24 hrs by MTT assay; assay type: functional; conditions: HO-8910, 24 h, read-out: GI
# [5] = Cytotoxicity against human HO8910 cells assessed as growth inhibition at 1 ug/ml after 24 hrs by MTT assay; assay type: functional; conditions: HO-8910, 24 h, read-out: GI
# [6] = Cytotoxicity against human HO8910 cells assessed as growth inhibition at 0.1 ug/ml after 24 hrs by MTT assay; assay type: functional; conditions: HO-8910, 24 h, read-out: GI
# [7] = test system: KB; assay: Cytotoxicity against human KB cells assessed as growth inhibition at 100 ug/ml after 24 hrs by MTT assay; assay type: functional; conditions: read-out: GI
# [8] = test system: KB; assay: Cytotoxicity against human KB cells assessed as growth inhibition at 10 ug/ml after 24 hrs by MTT assay; assay type: functional; conditions: read-out: GI
# [9] = test system: KB; assay: Cytotoxicity against human KB cells assessed as growth inhibition at 1 ug/ml after 24 hrs by MTT assay; assay type: functional; conditions: read-out: GI
# [10] = test system: KB; assay: Cytotoxicity against human KB cells assessed as growth inhibition at 0.1 ug/ml after 24 hrs by MTT assay; assay type: functional; conditions: read-out: GI
# [11] = test system: Bel-7402; assay: Cytotoxicity against human Bel7402 cells assessed as growth inhibition at 100 ug/ml after 24 hrs by MTT assay; assay type: functional; conditions: Bel-7402, 24 h, read-out: GI
# [12] = test system: Bel-7402; assay: Cytotoxicity against human Bel7402 cells assessed as growth inhibition at 10 ug/ml after 24 hrs by MTT assay; assay type: functional; conditions: Bel-7402, 24 h, read-out: GI
# [13] = test system: Bel-7402; assay: Cytotoxicity against human Bel7402 cells assessed as growth inhibition at 1 ug/ml after 24 hrs by MTT assay; assay type: functional; conditions: Bel-7402, 24 h, read-out: GI
# [14] = test system: Bel-7402; assay: Cytotoxicity against human Bel7402 cells assessed as growth inhibition at 0.1 ug/ml after 24 hrs by MTT assay; assay type: functional; conditions: Bel-7402, 24 h, read-out: GI
# [15] = test system: PC-3; assay: Cytotoxicity against human PC3 cells assessed as growth inhibition at 100 ug/ml after 24 hrs by MTT assay; assay type: functional; conditions: PC-3, 24 h, read-out: GI
# [16] = test system: PC-3; assay: Cytotoxicity against human PC3 cells assessed as growth inhibition at 10 ug/ml after 24 hrs by MTT assay; assay type: functional; conditions: PC-3, 24 h, read-out: GI
# [17] = test system: PC-3; assay: Cytotoxicity against human PC3 cells assessed as growth inhibition at 1 ug/ml after 24 hrs by MTT assay; assay type: functional; conditions: PC-3, 24 h, read-out: GI
# [18] = test system: PC-3; assay: Cytotoxicity against human PC3 cells assessed as growth inhibition at 0.1 ug/ml after 24 hrs by MTT assay; assay type: functional; conditions: for inhibition of growth at 0.1 µg/mL: PC-3, 24 h, read-out: GI
# [19] = test system: NCI-H460; assay: Cytotoxicity against human NCI-H460 cells assessed as growth inhibition at 100 ug/ml after 24 hrs by MTT assay; assay type: functional; conditions: NCI-H460, 24 h, read-out: GI
# [20] = test system: NCI-H460; assay: Cytotoxicity against human NCI-H460 cells assessed as growth inhibition at 10 ug/ml after 24 hrs by MTT assay; assay type: functional; conditions: NCI-H460, 24 h, read-out: GI
# [21] = test system: NCI-H460; assay: Cytotoxicity against human NCI-H460 cells assessed as growth inhibition at 1 ug/ml after 24 hrs by MTT assay; assay type: functional; conditions: NCI-H460, 24 h, read-out: GI
# [22] = test system: SMMC-7721; assay: Induction of apoptosis in human SMMC7721 cells at 5 mM after 96 hrs; assay type: functional
# [23] = test system: FaDu; assay: Growth inhibition of human FADU cells at 10 uM; assay type: functional
# [24] = test system: SCC-9; assay: Growth inhibition of human SCC9 cells at 10 uM; assay type: functional
# [25] = test system: SCC-25; assay: Growth inhibition of human SCC25 cells at 10 uM; assay type: functional
# [26] = Growth inhibition of human Detroit 562 cells at 10 uM; assay type: functional
# [27] = test system: HT-29; assay: Induction of apoptosis in human HT-29 cells; assay type: functional, cell-based
# [28] = Toxicity in rat; assay type: organism-based; conditions: in vivo
# [29] = test system: CCRF S-180; assay: Antitumor activity against mouse S180 cells xenografted in ICR mouse assessed as reduction of tumor weight at 100 mg/kg, ig administered 2 days after tumor inoculation qd for 7 days; assay type: functional; conditions: route intragastric
# [30] = test system: CCRF S-180; assay: Antitumor activity against mouse S180 cells xenografted in ICR mouse assessed as reduction of tumor weight at 200 mg/kg, ig administered 2 days after tumor inoculation qd for 7 days; assay type: functional; conditions: route intragastric
SMILES,inhibition of growth at 0.1 µg/mL [2] [%],inhibition of growth at 100 µg/mL [3] [%],inhibition of growth at 10 µg/mL [4] [%],inhibition of growth at 1 µg/mL [5] [%],inhibition of growth at 0.1 µg/mL [6] [%],inhibition of growth at 100 µg/mL [7] [%],inhibition of growth at 10 µg/mL [8] [%],inhibition of growth at 1 µg/mL [9] [%],inhibition of growth at 0.1 µg/mL [10] [%],inhibition of growth at 100 µg/mL [11] [%],inhibition of growth at 10 µg/mL [12] [%],inhibition of growth at 1 µg/mL [13] [%],inhibition of growth at 100 µg/mL [15] [%],inhibition of growth at 10 µg/mL [16] [%],inhibition of growth at 1 µg/mL [17] [%],inhibition of growth at 0.1 µg/mL [18] [%],inhibition of growth at 100 µg/mL [19] [%],inhibition of growth at 10 µg/mL [20] [%],inhibition of growth at 1 µg/mL [21] [%],also measured
CS/C=C\C(=O)SCCC(CCCCC(=O)OCCN(C)C)SC(=O)/C=C\SC (configuration not stated),–,–,–,–,–,–,–,–,–,–,–,–,–,–,–,–,–,–,–,IC50 [1]: 50 µM
O=C(CCCCC1CCSS1)Nc1ccccc1 (configuration not stated),9.48,57.8,4.71,10.9,11.2,65.3,10.2,6.06,10.9,60.6,2.27,3.28,59.2,13,13.6,5.5,47.6,0.75,5.86,inhibition of growth at 0.1 µg/mL [14]: 3.22%
O=C(CCCCC(S)CCS)Nc1ccc(OC(F)(F)F)cc1 (configuration not stated),17.2,66.8,6.11,0.56,–,73.3,15,6,7.27,49.7,14.2,7.32,75.5,42.5,12.6,14.9,65.1,29.2,19.1,–
O=C(CCCCC1CCSS1)Nc1ccc(Cl)cc1 (configuration not stated),13,74.8,0.75,–,–,83.1,21.7,18.6,16.4,76.4,7.01,0.64,41.2,14.7,13.7,18.9,68.7,18.3,10.9,inhibition of growth at 0.1 µg/mL [14]: 3.37%
O=C(CCCCC1CCSS1)Nc1ccc(F)cc1 (configuration not stated),15.6,78.1,3.89,5.82,6.59,85.4,4.44,4.05,11.3,74.5,1.92,1.79,80.8,13.8,14.5,15.6,64.5,18.8,11.4,–
CSCCCC(=O)SCCC(CCCCC(=O)OCCN(C)C)SC(=O)CCCSC (configuration not stated),–,–,–,–,–,–,–,–,–,–,–,–,–,–,–,–,–,–,–,IC50 [1]: 240 µM
CS/C=C/C(=O)SCCC(CCCCC(=O)OCCN(C)C)SC(=O)/C=C/SC (configuration not stated),–,–,–,–,–,–,–,–,–,–,–,–,–,–,–,–,–,–,–,IC50 [1]: 45 µM
"O=C(O)CCCCC1CCSS1 (stereo not drawn) [LIPOIC ACID, ALPHA]",8.71,5.11,–,1.05,3.39,11,7.18,8.6,0.14,8.17,4.77,2.52,–,–,–,–,5.72,2.39,4.65,Activity [22]: 65%; inhibition at 10 µM [23]: 50%; inhibition at 10 µM [24]: 50%; inhibition at 10 µM [25]: 50%; inhibition at 10 µM [26]: 50%; EC50 [27]: 250 µM; LD50 [28]: 2000 mg/kg
COC(=O)CCCCC(CCSC(=O)CCCSC)SC(=O)CCCSC (configuration not stated),–,–,–,–,–,–,–,–,–,–,–,–,–,–,–,–,–,–,–,IC50 [1]: 400 µM
Cc1cccc(NC(=O)CCCCC2CCSS2)c1 (configuration not stated),7.97,62.7,–,4.54,3.68,68,4.13,5.2,4.29,49.9,9.01,10.3,75.1,9.57,9.98,2.13,52.9,4.15,7.82,inhibition of growth at 0.1 µg/mL [14]: 9.88%
O=C(CCCCC1CCSS1)Nc1ccc(OC(F)(F)F)cc1 (configuration not stated),7.05,84.5,8.57,10,5.53,90.1,8.49,1.54,1.97,78.4,1.24,0.29,88.5,38.2,10.8,6.69,83,20.3,12.2,–
O=C(O)CCCC[C@@H](S)CCS [DIHYDROLIPOIC ACID],9.25,1.17,–,3.93,–,16.3,3.38,8.79,12,0.59,5.59,6.98,–,–,–,–,7.84,5.02,12.2,inhibition of growth at 0.1 µg/mL [14]: 10.4%; EC50 [27]: 250 µM
O=C(CCCCCCC(=O)Nc1ccccc1)NO [VORINOSTAT],–,–,–,–,–,–,–,–,–,–,–,–,–,–,–,–,–,–,–,Activity [29]: 1.61 g; Activity [30]: 1.53 g
O=C(CCCCC(S)CCS)Nc1ccc(Cl)cn1 (configuration not stated),–,71.2,21.9,–,2.65,76.5,21.6,–,–,50.7,17.8,2.34,32.4,10.8,0.89,–,55.8,27.4,–,growth inhibition (GI) [18]: inactive
O=C(CCCCC1CCSS1)Nc1ccc([N+](=O)[O-])cc1 (configuration not stated),11.9,64.5,0.61,0.33,–,71.3,14.4,–,0.22,52.6,4.83,–,79.6,6.67,19.9,13.9,56.7,22.7,7.45,–
O=C(CCCCC1CCSS1)Nc1cccc(C(F)(F)F)c1 (configuration not stated),–,74.8,5.99,4.76,5,80,10.9,9.5,0.33,61.9,4.43,–,88.7,38.5,8.44,6.27,68.8,6.77,4.39,–
